Assay [1] deals with Ascochyta rabiei. Briefly: Antifungal activity against Didymella rabiei inoculated in chickpea plant assessed as reduction in chickpea blight disease at 100 ppm compound single spray 24 hr before inoculation by green house experiment. The assay is classed as functional.
Assay [2] deals with Ascochyta rabiei. Briefly: Antifungal activity against Didymella rabiei isolate ARL1 inoculated in chickpea seedlings assessed as reduction in chickpea blight disease at 100 ppm compound treated 24 hr prior seedlings by green house experiment. It is filed as functional, organism-based.
For assay [3], the system named is Ascochyta rabiei. Briefly: Antifungal activity against Didymella rabiei in chickpea plant assessed as dry grain yield at 50 ppm compound three sprays 15 intervals (Control = 0.268 t/ha). The assay is classed as functional.
The test system of assay [4] is Ascochyta rabiei. Briefly: Antifungal activity against Didymella rabiei in chickpea plant assessed as dry grain yield at 50 ppm compound two sprays 15 intervals (Control = 0.268 t/ha). The assay is classed as functional.
In assay [5] the test system is Ascochyta rabiei. Put plainly: Antifungal activity against Didymella rabiei in chickpea plant assessed as dry grain yield at 50 ppm compound single spray 15 intervals (Control = 0.268 t/ha). It is filed as functional.
The test system of assay [6] is Ascochyta rabiei. Briefly: Antifungal activity against Didymella rabiei in chickpea plant assessed as dry grain yield at 50 ppm compound treated by seeds soaking for 24 hr (Control = 0.268 t/ha). The assay is classed as functional.
The subject of assay [7] is Ascochyta rabiei. Briefly: Antifungal activity against Didymella rabiei in chickpea plant assessed as chickpea blight disease severity at 50 ppm compound three sprays 15 intervals (Control = 45.8%). The assay is classed as functional.
The subject of assay [8] is Ascochyta rabiei. Put plainly: Antifungal activity against Didymella rabiei in chickpea plant assessed as chickpea blight disease severity at 50 ppm compound two sprays 15 intervals (Control = 45.8%). The assay is classed as functional.
Assay [9] relates to Ascochyta rabiei. Briefly: Antifungal activity against Didymella rabiei in chickpea plant assessed as chickpea blight disease severity at 50 ppm compound single spray 15 intervals (Control = 45.8%). It is filed as functional.
The subject of assay [10] is Ascochyta rabiei. Put plainly: Antifungal activity against Didymella rabiei in chickpea plant assessed as chickpea blight disease severity at 50 ppm compound treated by seeds soaking for 24 hr (Control = 45.8%). It is filed as functional.
The subject of assay [11] is Ascochyta rabiei. Briefly: Antifungal activity against Didymella rabiei inoculated in chickpea plant assessed as reduction in chickpea blight disease at 100 ppm compound single spray 96 or 120 hr before inoculation by green house experiment. It is filed as functional, organism-based.
For assay [12], the system named is Ascochyta rabiei. Briefly: Antifungal activity against Didymella rabiei inoculated in chickpea plant assessed as reduction in chickpea blight disease at 100 ppm compound single spray 24 to 72 hr before inoculation by green house experiment. It is filed as functional, organism-based.

Active and inactive are the calls of the source. The rule behind the calls is not given here.

For orientation: inhibition means the relative decrease from the control value, in per cent.

Turning to `CSC(=O)c1cccc2nnsc12` [ACIBENZOLAR-S-METHYL], the inhibition at 100 ppm in assay [1] was 72.4%. Moreover, the inhibition entry in [2] and in assay [12] was “Active” each time. Also, the Crop_yield was 0.922 tons/ha in assay [3], 1.066 tons/ha in assay [4], 0.52 tons/ha in assay [5] and 0.456 tons/ha in assay [6]. Besides, the Activity is given as 4.2% in assay [7], 7.5% in assay [8], 17.5% in [9] and 22.5% in [10]. In addition, the inhibition result in [11] is “inactive”.

Values taken from ChEMBL document CHEMBL3045545, “Control of chickpea blight disease caused by Didymella rabiei by mixing resistance inducer and contact fungicide” (2011).
